Tested on: Nannochloropsis sp.
Test: Pulsed chlorate stress with non-destructive lipid extraction of algae culture
Assay type: cell-based
Conditions: chlorate stress 18 hours under nutrient-replete conditions, repeated cycles, compared to identical system with the cycle carried out only once
Excerpt: Nannochloropsis sp., a unicellular alga capable of producing large amounts of triacylglycerides, can be grown in f/2 medium with 1/3rd strength Instant Ocean under indoor lighting in 800 L raceway systems either kept moving with a submerged pump or paddlewheel. The algae are first grown under normal, nutrient replete conditions. Upon achieving a set concentration in culture sufficient for economical extraction (e.g., 1.0 g/L), an amount of chlorate sufficient to block nitrogen uptake by the Nannochloropsis is added. The Nannochloropsis culture is then allowed to grow under these conditions of nutrient assimilation inhibition for 18 hours. Twenty five percent of the algae culture is then removed and subjected to a non-destructive extraction process, while ammonia is added to the remaining in an amount sufficient to renew normal nitrogen uptake.
The removed portion of the culture is then mixed with dodecane or undecane or a mixture of the two for 15 minutes, during which sonication is applied for 2 seconds at 40 kHz. The mixture is partitioned with the upper solvent level removed by decanting, and the lower aqueous layer is then returned to the original algae culture, in which non-stressed growth has resumed as a result of the addition of ammonia. […]

Compound: [O-][Cl+2]([O-])O [chlorate]
- levels of lipid obtained during subsequent cycles: higher levels of lipid
